Assay results from patent US20250115591A1, “NOVEL SULFONAMIDE CARBOXAMIDE COMPOUNDS” (INFLAZOME LIMITED, priority 2017, published 2025).
Where a name gives a salt, the structure may show the parent alone.

Biological target: NLRP3 (Homo sapiens (Human), UniProt Q96P20)
Assay: THP-1 cells pyroptosis assay (LPS + nigericin, resazurin read-out)
Format: cell-based
Conditions: 1 μg/ml LPS, 5 μM nigericin
Procedure: THP-1 cells (ATCC #TIB-202) were grown in RPMI containing L-glutamine (Gibco 15 #11835) supplemented with 1 mM sodium pyruvate (Sigma #S8636) and penicillin (100 units/ml)/streptomycin (0.1 mg/ml) (Sigma #P4333) in 10% Fetal Bovine Serum (FBS) (Sigma #F0804). The cells were routinely passaged and grown to confluency (˜10^6 cells/ml). On the day of the experiment, THP-1 cells were harvested and resuspended into RPMI medium (without FBS). The cells were then counted and viability (>90%) checked by Trypan blue (Sigma #T8154). Appropriate dilutions were made to give a concentration of 625,000 cells/ml. To this diluted cell solution was added LPS (Sigma #[4524) to give a 1 μg/ml Final Assay Concentration (FAC). 40μ of the final preparation was aliquoted into each well of a 96-well plate. The plate thus prepared was used for compound screening.
The following method step-by-step assay was followed for compound screening. • 1. Seed THP-1 cells (25,000 cells/well) containing 1.0 μg/ml LPS in 40μ of RPMI medium (without FBS) in 96-well, black walled, clear bottom cell culture plates coated with poly-D-lysine (VWR #734-0317) • 2. Add 5 μl compound (8 points half-log dilution, with […]) or vehicle (DMSO 0.1% FAC) to the appropriate wells • 3. Incubate for 3 hrs at 37° C. and 5% CO2 • 4. Add 5 μl nigericin (Sigma #N7143) (FAC 5 μM) to all wells • 5. Incubate for 1 hr at 37° C. and 5% CO2 • 6. At the end of the incubation period, spin plates at 300×g for 3 mins and remove supernatant • 7. Then add 50 μl of resazurin (Sigma #R7017) (FAC 100 μM resazurin in RPMI medium without FBS) and incubate plates for a further 1-2 hrs at 37° C. and 5% CO2 • 8. Plates were read in an Envision reader at Ex 560 nm and Em 590 nm • 9. IC50 data is fitted to a non-linear regression equation (log inhibitor vs response-variable slope 4-parameters)

Chain of NLRP3 (Q96P20 whole entry): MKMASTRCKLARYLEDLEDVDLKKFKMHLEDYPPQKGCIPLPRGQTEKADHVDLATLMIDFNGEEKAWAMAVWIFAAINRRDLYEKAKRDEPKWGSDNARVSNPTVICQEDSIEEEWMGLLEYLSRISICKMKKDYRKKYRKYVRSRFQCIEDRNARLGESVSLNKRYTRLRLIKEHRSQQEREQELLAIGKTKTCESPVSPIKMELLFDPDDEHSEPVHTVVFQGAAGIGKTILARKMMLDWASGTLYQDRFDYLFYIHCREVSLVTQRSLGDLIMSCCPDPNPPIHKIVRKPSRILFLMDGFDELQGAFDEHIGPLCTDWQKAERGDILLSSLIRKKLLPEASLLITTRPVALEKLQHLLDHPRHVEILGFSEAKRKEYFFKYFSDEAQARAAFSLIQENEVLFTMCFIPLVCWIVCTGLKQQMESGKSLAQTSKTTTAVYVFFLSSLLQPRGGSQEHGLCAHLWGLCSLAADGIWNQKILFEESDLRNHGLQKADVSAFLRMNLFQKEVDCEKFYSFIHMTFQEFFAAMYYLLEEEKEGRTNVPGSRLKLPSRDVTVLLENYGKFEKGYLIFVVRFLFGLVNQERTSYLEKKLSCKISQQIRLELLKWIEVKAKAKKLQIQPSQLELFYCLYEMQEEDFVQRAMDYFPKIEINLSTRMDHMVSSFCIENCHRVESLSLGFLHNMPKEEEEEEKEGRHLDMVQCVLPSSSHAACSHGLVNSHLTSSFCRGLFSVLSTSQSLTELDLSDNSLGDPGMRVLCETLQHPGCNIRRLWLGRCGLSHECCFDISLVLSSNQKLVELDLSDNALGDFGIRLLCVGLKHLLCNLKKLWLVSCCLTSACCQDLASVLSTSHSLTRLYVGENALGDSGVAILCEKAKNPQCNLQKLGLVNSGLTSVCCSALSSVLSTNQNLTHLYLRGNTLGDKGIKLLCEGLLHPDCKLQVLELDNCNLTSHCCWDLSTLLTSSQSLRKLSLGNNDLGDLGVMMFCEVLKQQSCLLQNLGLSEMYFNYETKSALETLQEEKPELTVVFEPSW

| Structure (SMILES) | IC50 |
| --- | --- |
| CCC(=O)N1CCC(S(=O)(=O)NC(=O)Nc2c3c(cc4c2CCC4)CCC3)CC1 [Example 10, N-((1,2,3,5,6,7-Hexahydro-s-indacen-4-yl)carbamoyl)-1-propionylpiperidine-4-sulfonamide, potassium salt] | 1 to 10 µM |
| CC(C)C(=O)N1CCC(S(=O)(=O)NC(=O)Nc2c3c(cc4c2CCC4)CCC3)CC1 [Example 11, N-((1,2,3,5,6,7-Hexahydro-s-indacen-4-yl)carbamoyl)-1-isobutyrylpiperidine-4-sulfonamide, potassium salt] | 1 to 10 µM |
| COCC(=O)N1CCC(S(=O)(=O)NC(=O)Nc2c3c(cc4c2CCC4)CCC3)CC1 [Example 12, N-((1,2,3,5,6,7-Hexahydro-s-indacen-4-yl)carbamoyl)-1-(2-methoxyacetyl)piperidine-4-sulfonamide, potassium salt] | 1 to 10 µM |
| N#CCN1CCC(S(=O)(=O)NC(=O)Nc2c3c(cc4c2CCC4)CCC3)CC1 [Example 14, 1-(Cyanomethyl)-N-((1,2,3,5,6,7-hexahydro-s-indacen-4-yl)carbamoyl)piperidine-4-sulfonamide, potassium salt] | 1 to 10 µM |
| O=C(Nc1c2c(cc3c1CCC3)CCC2)NS(=O)(=O)C1CCN(C2CCC2)CC1 [Example 15, 1-Cyclobutyl-N-((1,2,3,5,6,7-hexahydro-s-indacen-4-yl)carbamoyl)piperidine-4-sulfonamide, potassium salt] | 1 to 10 µM |
| CCCN1CCC(S(=O)(=O)NC(=O)Nc2c3c(cc4c2CCC4)CCC3)CC1 [Example 19, N-((1,2,3,5,6,7-Hexahydro-s-indacen-4-yl)carbamoyl)-1-propyl piperidine-4-sulfonamide, potassium salt] | 1 to 10 µM |
| O=C(Nc1c2c(cc3c1CCC3)CCC2)NS(=O)(=O)C1CCN(C2COC2)CC1 [Example 20, N-((1,2,3,5,6,7-Hexahydro-s-indacen-4-yl)carbamoyl)-1-(oxetan-3-yl)piperidine-4-sulfonamide, potassium salt] | 1 to 10 µM |
| COC(=O)CN1CCC(S(=O)(=O)NC(=O)Nc2c3c(cc4c2CCC4)CCC3)CC1 [Example 21, Methyl 2-(4-(N-((1,2,3,5,6,7-Hexahydro-s-indacen-4-yl)carbamoyl)sulfamoyl)piperidin-1-yl)acetate, potassium salt] | 1 to 10 µM |
| O=C(Nc1c2c(cc3c1CCC3)CCC2)NS(=O)(=O)C1CCN(CCF)CC1 [Example 22, 1-(2-Fluoroethyl)-N-((1,2,3,5,6,7-hexahydro-s-indacen-4-yl)carbamoyl)piperidine-4-sulfonamide, potassium salt] | 1 to 10 µM |
| O=C(Nc1c2c(cc3c1CCC3)CCC2)NS(=O)(=O)C1CCN(C2CC2)CC1 [Example 23, 1-Cyclopropyl-N-((1,2,3,5,6,7-hexahydro-s-indacen-4-yl)carbamoyl)piperidine-4-sulfonamide, potassium salt] | 1 to 10 µM |
| O=C(Nc1c2c(cc3c1CCC3)CCC2)NS(=O)(=O)C1CCN(C(=O)C2CCC2)CC1 [Example 25, 1-(Cyclobutanecarbonyl)-N-((1,2,3,5,6,7-hexahydro-s-indacen-4-yl)carbamoyl)piperidine-4-sulfonamide, potassium salt] | 1 to 10 µM |
| O=C(Nc1c2c(cc3c1CCC3)CCC2)NS(=O)(=O)C1CCCN(C(=O)NC2CCC2)C1 (stereo not drawn) [Example 27, N-Cyclobutyl-3-(N-((1,2,3,5,6,7-hexahydro-s-indacen-4-yl)carbamoyl)sulfamoyl)piperidine-1-carboxamide, potassium salt] | 1 to 10 µM |
| CS(=O)(=O)N1CCC(S(=O)(=O)NC(=O)Nc2c3c(cc4c2CCC4)CCC3)CC1 [Example 29, N-((1,2,3,5,6,7-Hexahydro-s-indacen-4-yl)carbamoyl)-1-(methylsulfonyl)piperidine-4-sulfonamide, potassium salt] | 1 to 10 µM |
| CN1CCC(S(=O)(=O)NC(=O)Nc2c3c(cc4c2CCC4)CCC3)C1 (stereo not drawn) [Example 36, N-((1,2,3,5,6,7-Hexahydro-s-indacen-4-yl)carbamoyl)-1-methylpyrrolidine-3-sulfonamide, potassium salt] | 1 to 10 µM |
| CN(C)C(=O)N1CCC(S(=O)(=O)NC(=O)Nc2c3c(cc4c2CCC4)CCC3)C1 (stereo not drawn) [Example 40, 3-(N-((1,2,3,5,6,7-Hexahydro-s-indacen-4-yl)carbamoyl)sulfamoyl)-N,N-dimethylpyrrolidine-1-carboxamide] | 1 to 10 µM |
| O=C(Nc1c2c(cc3c1CCC3)CCC2)NS(=O)(=O)C1CN2CCC1CC2 (stereo not drawn) [Example 43, N-((1,2,3,5,6,7-Hexahydro-s-indacen-4-yl)carbamoyl) quinuclidine-3-sulfonamide, potassium-salt] | 1 to 10 µM |
| CCN1CCC(N2CCC(S(=O)(=O)NC(=O)Nc3c4c(cc5c3CCC5)CCC4)C2)CC1 (stereo not drawn) [Example 44, 1-(1-Ethylpiperidin-4-yl)-N-((1,2,3,5,6,7-hexahydro-s-indacen-4-yl)carbamoyl)pyrrolidine-3-sulfonamide, potassium salt] | 1 to 10 µM |
| CC(C)N1CCC(S(=O)(=O)NC(=O)Nc2c3c(cc4c2CCC4)CCC3)CC1 [Example 47, N-((1,2,3,5,6,7-Hexahydro-s-indacen-4-yl)carbamoyl)-1-iso-propylpiperidine-4-sulfonamide, potassium salt] | 1 to 10 µM |
| CCN1CCC(N2CCC(S(=O)(=O)NC(=O)Nc3c4c(cc5c3CCC5)CCC4)CC2)CC1 [Example 48, 1′-Ethyl-N-((1,2,3,5,6,7-hexahydro-s-indacen-4-yl)carbamoyl)-[1,4′-bipiperidine]-4-sulfonamide, potassium salt] | 1 to 10 µM |
| CCN1CC2(CC(S(=O)(=O)NC(=O)Nc3c4c(cc5c3CCC5)CCC4)C2)C1 [Example 50, 2-Ethyl-N-((1,2,3,5,6,7-hexahydro-s-indacen-4-yl)carbamoyl)-2-azaspiro[3.3]heptane-6-sulfonamide, potassium salt] | 1 to 10 µM |
| CC(C)N1CC(N2CCC(S(=O)(=O)NC(=O)Nc3c4c(cc5c3CCC5)CCC4)C2)C1 (stereo not drawn) [Example 51, N-((1,2,3,5,6,7-Hexahydro-s-indacen-4-yl)carbamoyl)-1-(1-isopropylazetidin-3-yl)pyrrolidine-3-sulfonamide, potassium salt] | 1 to 10 µM |
| O=C(Nc1c2c(cc3c1CCC3)CCC2)NS(=O)(=O)C1CCN(C(=O)C(F)(F)F)C1 (stereo not drawn) [Example 54, N-((1,2,3,5,6,7-Hexahydro-s-indacen-4-yl)carbamoyl)-1-(2,2,2-trifluoroacetyl)pyrrolidine-3-sulfonamide, potassium salt] | 1 to 10 µM |
| O=C(Nc1c2c(cc3c1CCC3)CCC2)NS(=O)(=O)C1CCCN(CC2CC2)C1 (stereo not drawn) [Example 57, 1-(Cyclopropylmethyl)-N-((1,2,3,5,6,7-hexahydro-s-indacen-4-yl)carbamoyl)piperidine-3-sulfonamide, potassium salt] | 1 to 10 µM |
| N#CCN1CCCC(S(=O)(=O)NC(=O)Nc2c3c(cc4c2CCC4)CCC3)C1 (stereo not drawn) [Example 58, 1-(Cyanomethyl)-N-((1,2,3,5,6,7-hexahydro-s-indacen-4-yl)carbamoyl)piperidine-3-sulfonamide, potassium salt] | 1 to 10 µM |
| C#CCN1CCCC(S(=O)(=O)NC(=O)Nc2c3c(cc4c2CCC4)CCC3)C1 (stereo not drawn) [Example 59, N-((1,2,3,5,6,7-Hexahydro-s-indacen-4-yl)carbamoyl)-1-(prop-2-yn-1-yl)piperidine-3-sulfonamide, potassium salt] | 1 to 10 µM |
| CN1CCCC(S(=O)(=O)NC(=O)Nc2c3c(cc4c2CCC4)CCC3)C1 (stereo not drawn) [Example 60, N-((1,2,3,5,6,7-Hexahydro-s-indacen-4-yl)carbamoyl)-1-methylpiperidine-3-sulfonamide, potassium salt] | 1 to 10 µM |
| CN(C)C(=O)N1CCC(S(=O)(=O)NC(=O)Nc2c3c(cc4c2CCC4)CCC3)CC1 [Example 61, 4-(N-((1,2,3,5,6,7-Hexahydro-s-indacen-4-yl)carbamoyl)sulfamoyl)-N,N-dimethylpiperidine-1-carboxamide] | 1 to 10 µM |
| CC(C)N1CC(N2CCC(S(=O)(=O)NC(=O)Nc3c4c(cc5c3CCC5)CCC4)CC2)C1 [Example 62, N-((1,2,3,5,6,7-Hexahydro-s-indacen-4-yl)carbamoyl)-1-(1-isopropylazetidin-3-yl)piperidine-4-sulfonamide, potassium salt] | 1 to 10 µM |
| CC(C)N1CC2(CC(S(=O)(=O)NC(=O)Nc3c4c(cc5c3CCC5)CCC4)C2)C1 [Example 63, N-((1,2,3,5,6,7-Hexahydro-s-indacen-4-yl)carbamoyl)-2-isopropyl-2-azaspiro[3.3]heptane-6-sulfonamide, potassium salt] | 1 to 10 µM |
| CN1CC2(CC(S(=O)(=O)NC(=O)Nc3c4c(cc5c3CCC5)CCC4)C2)C1 [Example 64, N-((1,2,3,5,6,7-Hexahydro-s-indacen-4-yl)carbamoyl)-2-methyl-2-azaspiro[3.3]heptane-6-sulfonamide, potassium salt] | 1 to 10 µM |
